# In patent US7001921B1, “Cell adhesion inhibitors” (Biogen Idec MA Inc., priority 1995, dated 2006):
# Biological target: T1, VLA4 (Homo sapiens, UniProt P05556+P13612)
# T1 construct: endogenous in cells; host or cells: Ramos cells
# Assay: Inhibition of VLA4-dependent adhesion to BSA-CS1 (labelled Ramos cells)
# Type: cell-based
# Settings: binding of BCECF-AM labelled Ramos cells to CS1 peptide-coated wells, 2 mM MnCl2, 30 minutes at room temperature; IC50 range
# Excerpt: For example, the cell adhesion inhibitory activity of these compounds may be measured by determining the concentration of inhibitor required to block the binding of VLA-4-expressing cells to fibronectin- or CS1-coated plates. In this assay microtiter wells are coated with either fibronectin (containing the CS-1 sequence) or CS-1. If CS-1 is used, it must be conjugated to a carrier protein, such as bovine serum albumin, in order to bind to the wells. Once the wells are coated, varying concentrations of the test compound are then added together with appropriately labelled, VLA-4-expressing cells. Alternatively, the test compound may be added first and allowed to incubate with the coated wells prior to the addition of the cells. The cells are allowed to incubate in the wells for at least 30 minutes. Following incubation, the wells are emptied and washed. Inhibition of binding is measured by quantitating the fluorescence or radioactivity bound to the plate for each of the various concentrations of test compound, as well as for controls containing no test compound.
# VLA-4-expressing cells that may be utilized in this assay include Ramos cells, Jurkat cells, A375 melanoma cells, as well as human peripheral blood lymophocytes (PBLs). The cells used in this assay may be fluorescently or radioactively labelled.
# This assay was used to assess the potency of VLA4-directed inhibitory compounds of this invention.
# We dissolved BSA-SMCC (Pierce Chemical, Rockford, Ill.; Catalog # 77115) in H2O at a concentration of 10 mg/mL. [SEQ ID NO:4]: […](“Cys-Tyr-CS1 peptide”), which we synthesized by conventional solid phase chemistry and purified by HPLC, was dissolved in 10 mM HEPES pH 5, 50 mM NaCl and 0.1 mM EDTA also at a concentration of 10 mg/mL. We then mixed 500 μL of BSA-SMCC, 250 μL of Cys-Tyr-CS1 peptide and 75 μL of […] and allowed the conjugation reaction to proceed for 30 minutes. We stopped the reaction by adding 1 μL of beta-mercaptoethanol. Samples were analyzed for cross-linking by SDS-PAGE. This reaction produced multiple molecules of the Cys-Tyr-CS1 peptide conjugate to each BSA molecule.
# We coated the wells of a Linbro titertek polystyrene 96-well flat bottom plate (Flow Laboratories, Maclean, Va.; catalog #76-231-05) with 100 μL of the above-described BSA-CS1 solution diluted to 1 μg/mL in 0.05 M NaHCO3 (15 mM NaHCO3, 35 mM Na2CO3) pH 9.2. Some wells were not coated with CS1 in order to assess non-specific cell binding (NSB). The plate was then incubated overnight at 4° C.
# Following this incubation, the contents of the wells were removed by inverting and blotting the plate. All of the wells were then blocked with 100 μL of 1% BSA in PBS, 0.02% NaN3, for a minimum of one hour at room temperature.
# 3. Preparation of Fluorescently Labelled Ramos Cells Ramos cells are grown, maintained and labelled in RPMI 1640 culture medium containing 1% BSA. Just prior to running the assay, we added 2′,7′-bis-(2-carboxyethyl)5 (and -6) carboxyfluorescein acetoxymethyl ester (“BCECF-AM”; Molecular Probes Inc., Eugene, Oreg.; catalog #B-1150) to a final concentration of 2 μM to a culture of Ramos cells (4×10^6 cells/mL). We incubated the cells for 20 minutes at 37° C.
# Following labelling, the cells were washed twice in assay buffer (24 mM TRIS, 137 mM NaCl, 2.7 mM KCl, pH 7.4, containing 0.1% BSA and 2 mM glucose) to remove any cations originating from the culture medium. The cells were then resuspended in assay buffer to 4×10^6 cells/mL and 2 mM MnCl2 was added to upregulate VLA4 on the surface of the cells.
# Immediately prior to running the assay, we removed the BSA blocking solution from the 96-well plates and washed the wells with 100 μL of assay buffer. We then added to each well 25 μL of test cell adhesion inhibitory compound at 2× the final concentration and 25 μL of the labelled Ramos cells. Final concentrations were selected across a range of anticipated IC50s, usually between 0.01 nM–10 μM. […]
# T1 sequence (P13612 34-1032): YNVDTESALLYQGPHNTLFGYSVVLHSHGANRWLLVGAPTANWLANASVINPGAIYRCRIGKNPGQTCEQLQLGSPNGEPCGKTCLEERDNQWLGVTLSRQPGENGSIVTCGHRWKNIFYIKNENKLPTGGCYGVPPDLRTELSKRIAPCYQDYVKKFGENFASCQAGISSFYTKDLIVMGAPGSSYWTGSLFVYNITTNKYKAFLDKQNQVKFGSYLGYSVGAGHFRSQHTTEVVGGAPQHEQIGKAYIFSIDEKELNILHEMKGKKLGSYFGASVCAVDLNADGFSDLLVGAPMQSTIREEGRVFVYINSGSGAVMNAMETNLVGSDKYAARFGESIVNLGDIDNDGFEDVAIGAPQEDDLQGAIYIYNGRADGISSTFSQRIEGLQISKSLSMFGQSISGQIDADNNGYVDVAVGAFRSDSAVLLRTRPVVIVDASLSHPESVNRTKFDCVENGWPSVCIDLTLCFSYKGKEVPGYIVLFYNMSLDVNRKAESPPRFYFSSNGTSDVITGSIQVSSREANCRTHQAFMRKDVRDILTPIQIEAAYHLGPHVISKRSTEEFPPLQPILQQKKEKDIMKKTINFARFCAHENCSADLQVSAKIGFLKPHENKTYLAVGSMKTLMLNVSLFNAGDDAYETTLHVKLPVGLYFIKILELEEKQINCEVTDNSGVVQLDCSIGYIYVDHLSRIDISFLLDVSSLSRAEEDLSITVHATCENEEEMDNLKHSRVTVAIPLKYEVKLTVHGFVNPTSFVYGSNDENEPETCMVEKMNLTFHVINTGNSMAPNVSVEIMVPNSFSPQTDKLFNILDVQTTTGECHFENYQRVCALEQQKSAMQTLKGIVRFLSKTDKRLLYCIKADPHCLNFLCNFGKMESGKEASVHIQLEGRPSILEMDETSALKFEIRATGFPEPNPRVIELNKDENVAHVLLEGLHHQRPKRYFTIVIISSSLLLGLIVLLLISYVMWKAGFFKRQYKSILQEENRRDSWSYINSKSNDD
# T1 sequence (P05556 21-798): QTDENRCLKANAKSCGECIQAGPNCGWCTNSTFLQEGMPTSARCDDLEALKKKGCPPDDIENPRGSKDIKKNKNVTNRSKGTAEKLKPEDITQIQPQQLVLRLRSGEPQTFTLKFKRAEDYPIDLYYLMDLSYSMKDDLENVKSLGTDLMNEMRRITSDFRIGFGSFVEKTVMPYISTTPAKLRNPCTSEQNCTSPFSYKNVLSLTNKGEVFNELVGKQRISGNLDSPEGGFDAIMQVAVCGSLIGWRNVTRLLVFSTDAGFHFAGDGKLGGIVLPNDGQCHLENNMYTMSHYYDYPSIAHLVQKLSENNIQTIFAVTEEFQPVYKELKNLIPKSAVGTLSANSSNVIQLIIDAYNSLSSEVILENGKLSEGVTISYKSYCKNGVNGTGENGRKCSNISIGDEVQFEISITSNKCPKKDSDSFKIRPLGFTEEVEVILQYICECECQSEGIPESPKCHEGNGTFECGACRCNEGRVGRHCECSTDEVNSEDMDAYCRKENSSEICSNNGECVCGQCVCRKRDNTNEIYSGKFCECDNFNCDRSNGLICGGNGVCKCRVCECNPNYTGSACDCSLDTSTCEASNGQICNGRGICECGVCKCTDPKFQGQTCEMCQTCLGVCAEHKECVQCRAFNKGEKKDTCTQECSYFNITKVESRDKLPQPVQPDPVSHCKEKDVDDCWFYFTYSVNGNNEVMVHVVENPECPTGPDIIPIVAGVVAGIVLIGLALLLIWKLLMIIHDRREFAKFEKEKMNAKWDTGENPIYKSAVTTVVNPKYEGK
row,Structure (SMILES),IC50
1,O=C(O)CC(NC(=O)C(CCc1ccccc1)NC(=O)Cc1ccccc1)c1ccccc1 (centres unmarked) [compound 1123],> 10 µM
2,O=C(O)CC(NC(=O)C(COCc1ccccc1)NC(=O)Cc1ccccc1)c1ccccc1 (centres unmarked) [compound 1126],> 10 µM
3,O=C(O)CC(NC(=O)C(CSCc1ccccc1)NC(=O)Cc1ccccc1)c1ccccc1 (centres unmarked) [compound 1127],0.05 to 10 µM
4,CC(C)CC(NC(=O)Cc1ccc(NC(=O)Nc2ccccc2)cc1)C(=O)NC(CC(=O)O)c1ccc2c(c1)CCC2 (centres unmarked) [compound 1128],0.05 to 10 µM
5,O=C(O)CC(NC(=O)C(Cc1ccccc1)NC(=O)Cc1ccc(NC(=O)Nc2ccccc2)cc1)c1ccc2c(c1)OCO2 (centres unmarked) [compound 1129],0.05 to 10 µM
6,O=C(O)CC(NC(=O)C(Cc1ccccc1)NC(=O)Cc1ccc(NC(=O)Nc2ccccc2)cc1)c1ccccc1 (centres unmarked) [compound 1130],0.05 to 10 µM
7,CCC(C)C(NC(=O)Cc1ccc(NC(=O)Nc2ccccc2)cc1)C(=O)NC(CC(=O)O)c1ccccc1 (centres unmarked) [compound 1131],0.05 to 10 µM
8,O=C(O)CC(NC(=O)C(CCCCNC(=O)OCc1ccccc1)NC(=O)Cc1ccc(NC(=O)Nc2ccccc2)cc1)c1ccccc1 (centres unmarked) [compound 1132],0.05 to 10 µM
9,CCC(C)C(NC(=O)Cc1ccc(NC(=O)Nc2ccccc2)cc1)C(=O)NC(CC(=O)O)c1ccc2c(c1)OCO2 (centres unmarked) [compound 1133],0.05 to 10 µM
10,CC(C)(C)OC(=O)NCC(NC(=O)Cc1ccc(NC(=O)Nc2ccccc2)cc1)C(=O)NC(CC(=O)O)c1ccccc1 (centres unmarked) [compound 1134],0.05 to 10 µM
11,CSCCC(NC(=O)Cc1ccc(NC(=O)Nc2ccccc2)cc1)C(=O)NC(CC(=O)O)c1ccccc1 (centres unmarked) [compound 1135],< 0.05 µM
12,NCC(NC(=O)Cc1ccc(NC(=O)Nc2ccccc2)cc1)C(=O)NC(CC(=O)O)c1ccccc1 (centres unmarked) [compound 1138],0.05 to 10 µM
13,NCCCCC(NC(=O)Cc1ccc(NC(=O)Nc2ccccc2)cc1)C(=O)NC(CC(=O)O)c1ccccc1 (centres unmarked) [compound 1139],0.05 to 10 µM
14,CC(C)CC(NC(=O)Cc1ccc(O)cc1)C(=O)NC(CC(=O)O)Cc1ccccc1 (centres unmarked) [compound 1143],> 10 µM
15,CC(C)CC(NC(=O)Cc1ccc(O)cc1)C(=O)NC(CC(=O)O)c1ccccc1 (centres unmarked) [compound 1144],0.05 to 10 µM
16,CC(C)CC(NC(=O)Cc1ccc(NC(=O)OC(C)(C)C)cc1)C(=O)NC(CC(=O)O)c1ccccc1 (centres unmarked) [compound 1145],0.05 to 10 µM
17,COc1cccc(C(CC(=O)O)NC(=O)C(CC(C)C)NC(=O)Cc2ccc(O)cc2)c1 (centres unmarked) [compound 1146],0.05 to 10 µM
18,CC(=O)Nc1ccc(CC(=O)NC(CC(C)C)C(=O)NC(CC(=O)O)c2ccccc2)cc1 (centres unmarked) [compound 1147],0.05 to 10 µM
19,CC(C)CC(NC(=O)Cc1ccc(O)cc1)C(=O)NC(CC(=O)O)c1cccnc1 (centres unmarked) [compound 1148],> 10 µM
20,CC(C)CC(NC(=O)c1ccc2ccccc2n1)C(=O)NC(CC(=O)O)c1ccccc1 (centres unmarked) [compound 1149],> 10 µM
21,CC(C)CC(NC(=O)CCc1ccccc1)C(=O)NC(CC(=O)O)c1ccccc1 (centres unmarked) [compound 1150],> 10 µM
22,CC(C)CC(NC(=O)OCc1ccccc1)C(=O)NC(CC(=O)O)c1cccnc1 (centres unmarked) [compound 1153],> 10 µM
23,CC(C)CC(NC(=O)Cc1ccccc1)C(=O)NC(CC(=O)O)Cc1ccccc1 (centres unmarked) [compound 1157],> 10 µM
24,CC(C)CC(NC(=O)Cc1ccccc1)C(=O)NC(CC(=O)O)c1ccc2c(c1)OCO2 (centres unmarked) [compound 1158],0.05 to 10 µM
25,COc1ccccc1C(CC(=O)O)NC(=O)C(CC(C)C)NC(=O)Cc1ccccc1 (centres unmarked) [compound 1159],> 10 µM
26,CSCCC(NC(=O)Cc1ccc(NC(=O)Nc2ccccc2)cc1)C(=O)NC(CC(=O)O)c1ccc2c(c1)OCO2 (centres unmarked) [compound 1163],0.05 to 10 µM
27,CSCCC(NC(=O)Cc1ccccc1)C(=O)NC(CC(=O)O)c1ccc2c(c1)OCO2 (centres unmarked) [compound 1164],0.05 to 10 µM
28,Cc1cccc(NC(=O)Nc2ccc(CC(=O)NC(CC(C)C)C(=O)NC(CC(=O)O)c3ccc4c(c3)OCO4)cc2)c1 (centres unmarked) [compound 1168],0.05 to 10 µM
29,CC(C)CC(NC(=O)Cc1ccc(NC(=O)NCc2ccccc2)cc1)C(=O)NC(CC(=O)O)c1ccc2c(c1)OCO2 (centres unmarked) [compound 1169],0.05 to 10 µM
